molecular target: T1, E-selectin (Homo sapiens, UniProt P16581); test: In vitro inhibitory activity against binding of Selectin E to human recombinant AGP (alpha-1 acid glycoprotein) at a concentration of 10 mM; NA- Not active
T1 sequence (P16581 whole entry): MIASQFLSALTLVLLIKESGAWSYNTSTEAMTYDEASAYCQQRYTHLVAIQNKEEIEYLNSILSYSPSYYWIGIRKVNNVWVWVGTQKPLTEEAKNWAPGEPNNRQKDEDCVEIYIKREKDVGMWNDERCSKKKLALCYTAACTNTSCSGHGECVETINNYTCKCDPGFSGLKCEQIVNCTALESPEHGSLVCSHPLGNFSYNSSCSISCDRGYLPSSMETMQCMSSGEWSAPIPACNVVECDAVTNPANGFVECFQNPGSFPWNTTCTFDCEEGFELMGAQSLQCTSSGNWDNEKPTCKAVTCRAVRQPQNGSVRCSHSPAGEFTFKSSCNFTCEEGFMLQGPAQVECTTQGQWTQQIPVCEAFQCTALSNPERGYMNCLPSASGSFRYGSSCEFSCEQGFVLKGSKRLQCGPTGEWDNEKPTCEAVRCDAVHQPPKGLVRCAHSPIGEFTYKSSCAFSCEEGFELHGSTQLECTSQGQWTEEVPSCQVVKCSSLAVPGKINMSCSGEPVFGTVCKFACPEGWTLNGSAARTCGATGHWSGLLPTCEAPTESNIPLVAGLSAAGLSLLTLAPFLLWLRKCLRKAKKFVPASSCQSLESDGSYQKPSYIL

IC50	SMILES
Not Active	Cc1cccc(N2CCN(CC3OC(CC(=O)N[C@@H](CCC(=O)O)C(=O)O)C(O)C(O)C3O)CC2)c1C (some centres not stated)
Not Active	NC(=O)CC1OC(CO)C(O)C(O)C1O (configuration not stated)
Not Active	O=C(O)C(NCCC1OC(CO)C(O)C(O)C1O)c1cc2ccccc2[nH]1 (configuration not stated)
Not Active	O=C(O)c1cc(NCCC2OC(CO)C(O)C(O)C2O)cc(C(=O)O)c1 (configuration not stated)
Not Active	NC(=O)[C@H]1CCCN1CC1OC(CC(=O)N[C@@H](CCC(=O)O)C(=O)O)C(O)C(O)C1O (some centres not stated)

SMILES	IC50
C[C@@H](Cc1ccccc1)N(C)CC1OC(CC(=O)N[C@@H](CCC(=O)O)C(=O)O)C(O)C(O)C1O (some centres not stated)	Not Active

molecular target: T1, E-selectin; test: In vitro inhibitory activity against Selectin E binding to human recombinant AGP (alpha-1 acid glycoprotein)

IC50 [mM]	SMILES
3	O=C(O)CC[C@H](NC(=O)CC1OC(CO)C(O)C(O)C1O)C(=O)O (some centres not stated)
6.7	NC(=O)[C@H](Cc1ccccc1)NCC1OC(CC(=O)N[C@@H](CCC(=O)O)C(=O)O)C(O)C(O)C1O (some centres not stated)
7	O=C(O)CC[C@@H](NC(=O)CC1OC(CO)C(O)C(O)C1O)C(=O)O (some centres not stated)
1.6	O=C(O)CC[C@H](NC(=O)CC1OC(CN2CCC(O)(Cc3ccccc3)CC2)C(O)C(O)C1O)C(=O)O (some centres not stated)
> 10	O=C(O)CCCc1ccc(NC(=O)CC2OC(CO)C(O)C(O)C2O)cc1 (configuration not stated)
6	O=C(O)CC[C@H](NC(=O)CC1OC(CNc2cc(C(=O)O)cc(C(=O)O)c2)C(O)C(O)C1O)C(=O)O (some centres not stated)
> 10	NC(=O)CC[C@@H](NC(=O)CC1OC(CO)C(O)C(O)C1O)C(=O)O (some centres not stated)
8	CC1CCCC(N(C)CC2OC(CC(=O)N[C@@H](CCC(=O)O)C(=O)O)C(O)C(O)C2O)C1 (some centres not stated)
6	O=C(O)C[C@@H](NC(=O)CC1OC(CO)C(O)C(O)C1O)C(=O)O (some centres not stated)
10	O=C(O)CCc1ccc(NC(=O)CC2OC(CO)C(O)C(O)C2O)cc1 (configuration not stated)
7	NCCCC[C@@H](NC(=O)CC1OC(CO)C(O)C(O)C1O)C(=O)O (some centres not stated)
